Assay results taken from US20230201235A1, “INHIBITION OF NIDOVIRUSES THAT ENCODE NSP15” (The University of Chicago, priority 2020, published 2023).

Key:
SARS-CoV-2 Nsp15 [1] = target: T1, SARS-CoV-2 Nsp15 (Severe acute respiratory syndrome coronavirus 2, UniProt P0DTD1); format: binding; conditions: co-crystal structures, Table 1
Nsp15 [2] = target: T2, Nsp15 (Severe acute respiratory syndrome coronavirus 2, UniProt P0DTD1); assay: Nsp15 differential scanning fluorimetry (DSF) assay; format: binding; conditions: 10 μM Nsp15, 1 mM ligand, 10 mM MnCl2; for melting temperature (Tm) of Nsp15 in presence of ligand: same Tm as control
Method: The Nsp15 differential scanning fluorimetry (DSF) assays were performed in a buffer 20 mM Tris pH 7.5, 100 mM NaCl, 1 mM TCEP that was supplemented with SYPRO™ Orange protein gel stain (Invitrogen, Carlsbad, Calif.) to 5× final concentration. 10 μM of the Nsp15 was used with the addition of each of 1 mM of tipiracil, 5′GpU, 5′UMP, 3′UMP, and TMP to get final molar ratio of protein to ligand 1:100. Additionally, the samples with ligands were supplemented with 10 mM MnCl2. After 30 min of incubation of samples at room-temperature, fluorescence measurements were done using CFX CONNECT™ Real-Time System (BioRad, Hercules, Calif.). Fluorescent signal was detected with temperature rate 1° C. per 60 sec. Samples were measured in triplicate, and the representative standard deviation of measurements are depicted for Nsp15 control sample and complex of the Nsp15 with addition of tipiracil.

SARS-CoV-2 Nsp15 [3] = target: T1, SARS-CoV-2 Nsp15; assay: Radioactivity-based endoribonuclease assay; format: biochemical
Nsp15 [4] = target: T2, Nsp15; assay: Fluorescence-based endoribonuclease assay; format: biochemical, SARS-CoV-2
Method: The oligonucleotide dArUdAdA with 5′-6-FAM and 3′-6-TAMRA was synthetized by GenScript Biotech (Piscataway, N.J.). The concentration of 0.5 μM substrate was used with 2 μM Nsp15 in a buffer containing 20 mM HEPES at pH 7.8, 100 mM NaCl, and 5 mM MnCl2. Detection of the emission of FAM fluorescence signal was done on CFX CONNECT™ Real-Time System (Bio-Rad Laboratories, Hercules, Calif.).
Cleavage of oligonucleotide dArUdAdA with 5′-6-FAM and 3′-6-TAMRA substrate was tested using polyacrylamide gel electrophoresis. The concentration of labeled substrate was […], and the Nsp15 concentration varied to achieve different molar ratios of substrate to Nsp15. Samples were mixed in a buffer with 20 mM HEPES at pH 7.8, 100 mM NaCl, and 5 mM MnCl2. After 10 minutes of incubation, samples were loaded on NUPAGE Tris-Acetate 3-8% gel, and the electrophoresis was done on 80 V for 1 h. The detection of FAM emission on gel was performed using the Gel DOC™ EZ System (Bio-Rad Laboratories, Hercules, Calif.).

SARS-CoV-2 = assay: Whole cell assays: spike protein immunostaining and viral RNA qRT-PCR; format: cell-based
A549-hACE2 cells = conditions: 1-50 μM

Row | Molecule | binding to the active site of Nsp15 in the crystal structure (SARS-CoV-2 Nsp15 [1]) | melting temperature (Tm) of Nsp15 in presence of ligand (Nsp15 [2]) | shift of Nsp15 denaturation profile to higher temperatures (Nsp15 [2]; versus control) [°C] | IC50 (SARS-CoV-2 Nsp15 [3]) [µM] | inhibition of cleavage reaction at higher Mn2+ concentration (SARS-CoV-2 Nsp15 [3]; octamer RNA, higher Mn2+ ion concentration (15 mM MnCl2)) | IC50 (Nsp15 [4]) [µM] | inhibition of virus (spike protein and RNA expression) (SARS-CoV-2) | effect on viability of cells (A549-hACE2 cells)
1 | N=C1CCCN1Cc1[nH]c(=O)[nH]c(=O)c1Cl [tipiracil, 5-chloro-6-[(2-imino-1-pyrrolidinyl)methyl]-2,4(1H,3H)-pyrimidinedione] | binds directly in the active site of Nsp15 | approximately 60.5 °C | 0.5 | 7.5 | no inhibition | 72 | modest | did not affect the viability of cells
2 | O=c1ccn([C@@H]2O[C@H](CO)[C@@H](OP(=O)(O)O)[C@H]2O)c(=O)[nH]1 [3′UMP, 3′-uridylic acid] | binds directly in the active site of Nsp15 | approximately 60.5 °C |  |  |  |  |  | 
3 | uridine 2′,3′-vanadate [UV] | binds directly in the active site of Nsp15 |  |  |  |  |  |  | 
4 | Cc1cn([C@H]2C[C@H](OP(=O)(O)O)[C@@H](CO)O2)c(=O)[nH]c1=O [3′TMP] |  | approximately 60.5 °C |  |  |  |  |  | 
5 | O=c1ccn([C@@H]2O[C@H](COP(=O)(O)O)[C@@H](O)[C@H]2O)c(=O)[nH]1 [5′UMP, 5′-uridylic acid] | binds directly in the active site of Nsp15 | approximately 60.5 °C |  |  |  |  |  | 
